Laboratory results taken from patent publication US20100099561A1, “HETEROBICYCLIC ALKYLTHIO-BRIDGED ISOXAZOLINES” (E.I. DU PONT DE NEMOURS AND COMPANY, priority 2008, published 2010).

Assays:
Assay type in all cases: in vivo
[1] = tested on: umbrella sedge (Cyperus difformis); assay: Test B flooded paddy test, umbrella sedge; conditions: Flood, scale 0 to 100
Method in brief: (§1)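 Paddy-water application to 2-leaf plants in pots held under 3 cm of flooding; response is a 0–100 visual control rating against controls after 13 to 15 days, and a dash marks a missing result.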

[2] = tested on: ducksalad (Heteranthera limosa); assay: Test B flooded paddy test, ducksalad; conditions: Flood, scale 0 to 100
Method in brief: as §1

[3] = tested on: morningglory (Ipomoea spp.); assay: Test A preemergence, morningglory; conditions: 0 to 100 scale (0 no effect, 100 complete control)
Method in brief: (§2)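 Seeds planted in loam–sand blend; compounds in non-phytotoxic solvent with surfactant applied as directed preemergence soil spray, or postemergence to plants 2–10 cm tall at one- to two-leaf stage. After ~10 days in greenhouse, injury rated visually versus untreated controls on 0–100 scale (100 = complete control).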

[4] = tested on: corn (Zea mays); assay: Test A postemergence, corn; conditions: 0 to 100 scale (0 no effect, 100 complete control)
Method in brief: as §2

[5] = tested on: barnyardgrass (Echinochloa crus-galli); assay: Test B flooded paddy test, barnyardgrass; conditions: Flood
Method in brief: as §1

[6] = tested on: large crabgrass (Digitaria sanguinalis); assay: Test A preemergence, large crabgrass; conditions: 0 to 100 scale (0 no effect, 100 complete control)
Method in brief: as §2

[7] = tested on: morningglory (Ipomoea spp.); assay: Test A postemergence, morningglory; conditions: 0 to 100 scale (0 no effect, 100 complete control)
Method in brief: as §2

[8] = tested on: rice (Oryza sativa); assay: Test B flooded paddy test, rice; conditions: Flood, scale 0 to 100
Method in brief: as §1

[9] = tested on: wheat (Triticum aestivum); assay: Test A postemergence, wheat; conditions: 0 to 100 scale (0 no effect, 100 complete control)
Method in brief: as §2

[10] = tested on: velvetleaf (Abutilon theophrasti); assay: Test A preemergence, velvetleaf; conditions: 0 to 100 scale (0 no effect, 100 complete control)
Method in brief: as §2

[11] = tested on: pigweed (Amaranthus retroflexus); assay: Test A postemergence, pigweed; conditions: 0 to 100 scale (0 no effect, 100 complete control)
Method in brief: as §2

[12] = tested on: barnyardgrass (Echinochloa crus-galli); assay: Test A preemergence, barnyardgrass; conditions: 0 to 100 scale (0 no effect, 100 complete control)
Method in brief: as §2

[13] = tested on: barnyardgrass (Echinochloa crus-galli); assay: Test A postemergence, barnyardgrass; conditions: 0 to 100 scale (0 no effect, 100 complete control)
Method in brief: as §2

[14] = tested on: giant foxtail (Setaria faberi); assay: Test A preemergence, giant foxtail; conditions: 0 to 100 scale (0 no effect, 100 complete control)
Method in brief: as §2

[15] = tested on: wheat (Triticum aestivum); assay: Test A preemergence, wheat; conditions: 0 to 100 scale (0 no effect, 100 complete control)
Method in brief: as §2

[16] = tested on: giant foxtail (Setaria faberi); assay: Test A postemergence, giant foxtail; conditions: 0 to 100 scale (0 no effect, 100 complete control)
Method in brief: as §2

[17] = tested on: pigweed (Amaranthus retroflexus); assay: Test A preemergence, pigweed; conditions: 0 to 100 scale (0 no effect, 100 complete control)
Method in brief: as §2

[18] = tested on: corn (Zea mays); assay: Test A preemergence, corn; conditions: 0 to 100 scale (0 no effect, 100 complete control)
Method in brief: as §2

[19] = tested on: large crabgrass (Digitaria sanguinalis); assay: Test A postemergence, large crabgrass; conditions: 0 to 100 scale (0 no effect, 100 complete control)
Method in brief: as §2

[20] = tested on: velvetleaf (Abutilon theophrasti); assay: Test A postemergence, velvetleaf; conditions: 0 to 100 scale (0 no effect, 100 complete control)
Method in brief: as §2

[21] = 250 g ai/ha, scale 0 to 100 (0 no effect, 100 complete control)

CC1(C)CC([S+]([O-])Cc2c(C(F)(F)F)nc3cnccn3c2=O)=NO1 (stereo not shown) [Compound 54]
Plant response rating, Sedge, Umbrella ([1]; 62 g ai/ha): 0
Plant response rating, Sedge, Umbrella ([1]; 250 g ai/ha): 0
Plant response rating, Ducksalad ([2]; 62 g ai/ha): 0
Plant response rating, Ducksalad ([2]; 250 g ai/ha): 0
Plant response rating, Morningglory ([3]; 125 g ai/ha): 0
Plant response rating, Morningglory ([3]; 500 g ai/ha): 0
Plant response rating, Corn ([4]; 125 g ai/ha): 0
Plant response rating, Corn ([4]; 500 g ai/ha): 0
Plant response rating, Barnyardgrass ([5]; 62 g ai/ha, scale 0 to 100): 0
Plant response rating, Barnyardgrass [5, 21]: 0
Plant response rating, Crabgrass, Large ([6]; 125 g ai/ha): 0
Plant response rating, Crabgrass, Large ([6]; 500 g ai/ha): 0
Plant response rating, Morningglory ([7]; 125 g ai/ha): 0
Plant response rating, Morningglory ([7]; 500 g ai/ha): 10
Plant response rating, Rice ([8]; 62 g ai/ha): 0
Plant response rating, Rice ([8]; 250 g ai/ha): 0
Plant response rating, Wheat ([9]; 125 g ai/ha): 0
Plant response rating, Wheat ([9]; 500 g ai/ha): 0
Plant response rating, Velvetleaf ([10]; 125 g ai/ha): 0
Plant response rating, Velvetleaf ([10]; 500 g ai/ha): 0
Plant response rating, Pigweed ([11]; 125 g ai/ha): 0
Plant response rating, Pigweed ([11]; 500 g ai/ha): 0
Plant response rating, Barnyardgrass ([12]; 125 g ai/ha): 0
Plant response rating, Barnyardgrass ([12]; 500 g ai/ha): 0
Plant response rating, Barnyardgrass ([13]; 125 g ai/ha): 0
Plant response rating, Barnyardgrass ([13]; 500 g ai/ha): 0
Plant response rating, Foxtail, Giant ([14]; 125 g ai/ha): 0
Plant response rating, Foxtail, Giant ([14]; 500 g ai/ha): 0
Plant response rating, Wheat ([15]; 125 g ai/ha): 0
Plant response rating, Wheat ([15]; 500 g ai/ha): 0
Plant response rating, Foxtail, Giant ([16]; 125 g ai/ha): 0
Plant response rating, Foxtail, Giant ([16]; 500 g ai/ha): 50
Plant response rating, Pigweed ([17]; 125 g ai/ha): 0
Plant response rating, Pigweed ([17]; 500 g ai/ha): 0
Plant response rating, Corn ([18]; 125 g ai/ha): 0
Plant response rating, Corn ([18]; 500 g ai/ha): 0
Plant response rating, Crabgrass, Large ([19]; 125 g ai/ha): 0
Plant response rating, Crabgrass, Large ([19]; 500 g ai/ha): 20
Plant response rating, Velvetleaf ([20]; 125 g ai/ha): 0
Plant response rating, Velvetleaf ([20]; 500 g ai/ha): 0

CC1(C)CC([S+]([O-])Cc2c(C(F)(F)F)nc3n(c2=O)CCCCC3)=NO1 (stereo not shown) [Compound 34]
Plant response rating, Sedge, Umbrella ([1]; 31 g ai/ha): 0
Plant response rating, Sedge, Umbrella ([1]; 62 g ai/ha): 0
Plant response rating, Sedge, Umbrella ([1]; 125 g ai/ha): 0
Plant response rating, Sedge, Umbrella ([1]; 250 g ai/ha): 0
Plant response rating, Ducksalad ([2]; 31 g ai/ha): 0
Plant response rating, Ducksalad ([2]; 62 g ai/ha): 0
Plant response rating, Ducksalad ([2]; 125 g ai/ha): 0
Plant response rating, Ducksalad ([2]; 250 g ai/ha): 0
Plant response rating, Morningglory ([3]; 125 g ai/ha): 0
Plant response rating, Morningglory ([3]; 500 g ai/ha): 0
Plant response rating, Corn ([4]; 125 g ai/ha): 0
Plant response rating, Corn ([4]; 500 g ai/ha): 0
Plant response rating, Barnyardgrass ([5]; 31 g ai/ha, scale 0 to 100): 0
Plant response rating, Barnyardgrass ([5]; 62 g ai/ha, scale 0 to 100): 0
Plant response rating, Barnyardgrass ([5]; 125 g ai/ha, scale 0 to 100): 0
Plant response rating, Barnyardgrass [5, 21]: 0
Plant response rating, Crabgrass, Large ([6]; 125 g ai/ha): 0
Plant response rating, Crabgrass, Large ([6]; 500 g ai/ha): 80
Plant response rating, Morningglory ([7]; 125 g ai/ha): 30
Plant response rating, Morningglory ([7]; 500 g ai/ha): 40
Plant response rating, Rice ([8]; 31 g ai/ha): 0
Plant response rating, Rice ([8]; 62 g ai/ha): 0
Plant response rating, Rice ([8]; 125 g ai/ha): 0
Plant response rating, Rice ([8]; 250 g ai/ha): 0
Plant response rating, Wheat ([9]; 125 g ai/ha): 0
Plant response rating, Wheat ([9]; 500 g ai/ha): 20
Plant response rating, Velvetleaf ([10]; 125 g ai/ha): 0
Plant response rating, Velvetleaf ([10]; 500 g ai/ha): 0
Plant response rating, Pigweed ([11]; 125 g ai/ha): 0
Plant response rating, Pigweed ([11]; 500 g ai/ha): 0
Plant response rating, Barnyardgrass ([12]; 125 g ai/ha): 0
Plant response rating, Barnyardgrass ([12]; 500 g ai/ha): 70
Plant response rating, Barnyardgrass ([13]; 125 g ai/ha): 0
Plant response rating, Barnyardgrass ([13]; 500 g ai/ha): 50
Plant response rating, Foxtail, Giant ([14]; 125 g ai/ha): 0
Plant response rating, Foxtail, Giant ([14]; 500 g ai/ha): 90
Plant response rating, Wheat ([15]; 125 g ai/ha): 0
Plant response rating, Wheat ([15]; 500 g ai/ha): 50
Plant response rating, Foxtail, Giant ([16]; 125 g ai/ha): 0
Plant response rating, Foxtail, Giant ([16]; 500 g ai/ha): 60
Plant response rating, Pigweed ([17]; 125 g ai/ha): 0
Plant response rating, Pigweed ([17]; 500 g ai/ha): 0
Plant response rating, Corn ([18]; 125 g ai/ha): 0
Plant response rating, Corn ([18]; 500 g ai/ha): 0
Plant response rating, Crabgrass, Large ([19]; 125 g ai/ha): 0
Plant response rating, Crabgrass, Large ([19]; 500 g ai/ha): 40
Plant response rating, Velvetleaf ([20]; 125 g ai/ha): 0
Plant response rating, Velvetleaf ([20]; 500 g ai/ha): 0
